In experiment [1] the target is T1, human PDGFR-α(wt) (Homo sapiens, UniProt P16234).
T1 construct: purchased Signalchem P12-18G
Put plainly: Enzyme inhibitory activity, ADP-Glo kinase assay, PDGFR-α(wt). The experiment is classed as biochemical. The conditions noted are these: read-out: PDGFR-α (IC50 class). In a few lines: (§1)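 Purified human kinases incubated with ATP and substrate 1–2 h at 25 °C in 40 mM Tris-HCl pH 7.4, 20 mM MgCl2, BSA, DTT, compound over 12 concentrations (10–0.00005645 μM final). ADP formed quantified by ADP-Glo luminescence; IC50 from inhibition versus DMSO control, reported in bins A–D.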
(ADP-Glo first removes unused ATP, then detects ADP through luciferase.)

The target in experiment [2] is T2, human PDGFR-β(wt) (Homo sapiens, UniProt P09619).
T2 construct: purchased Signalchem P13-11G
T2 sequence (P09619 33-1106): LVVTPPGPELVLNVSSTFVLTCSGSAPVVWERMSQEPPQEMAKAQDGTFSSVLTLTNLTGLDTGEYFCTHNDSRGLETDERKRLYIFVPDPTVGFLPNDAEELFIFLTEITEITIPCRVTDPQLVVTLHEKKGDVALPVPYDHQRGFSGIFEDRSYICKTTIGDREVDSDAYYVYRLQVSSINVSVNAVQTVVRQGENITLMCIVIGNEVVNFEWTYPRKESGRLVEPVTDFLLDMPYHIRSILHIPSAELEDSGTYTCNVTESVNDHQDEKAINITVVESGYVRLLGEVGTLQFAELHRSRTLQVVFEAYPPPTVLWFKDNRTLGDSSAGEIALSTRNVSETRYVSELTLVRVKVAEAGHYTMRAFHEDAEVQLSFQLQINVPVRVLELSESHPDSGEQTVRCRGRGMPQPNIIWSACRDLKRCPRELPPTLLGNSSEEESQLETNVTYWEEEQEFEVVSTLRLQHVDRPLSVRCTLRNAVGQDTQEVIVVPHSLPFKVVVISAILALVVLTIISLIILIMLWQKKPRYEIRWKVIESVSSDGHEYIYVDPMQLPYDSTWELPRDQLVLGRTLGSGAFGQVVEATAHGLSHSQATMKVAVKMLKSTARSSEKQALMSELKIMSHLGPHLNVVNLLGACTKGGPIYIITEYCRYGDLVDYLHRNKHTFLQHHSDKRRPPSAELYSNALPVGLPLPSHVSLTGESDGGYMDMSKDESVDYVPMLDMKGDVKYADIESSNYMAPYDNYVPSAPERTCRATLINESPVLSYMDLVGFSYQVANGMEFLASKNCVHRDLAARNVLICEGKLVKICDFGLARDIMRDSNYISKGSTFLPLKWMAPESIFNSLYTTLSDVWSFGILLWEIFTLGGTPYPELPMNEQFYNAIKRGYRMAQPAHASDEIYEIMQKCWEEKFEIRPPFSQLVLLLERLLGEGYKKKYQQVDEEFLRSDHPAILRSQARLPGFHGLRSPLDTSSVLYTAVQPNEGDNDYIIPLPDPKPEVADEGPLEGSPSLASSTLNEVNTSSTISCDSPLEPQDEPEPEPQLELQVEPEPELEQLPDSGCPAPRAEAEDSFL
Put plainly: Enzyme inhibitory activity, ADP-Glo kinase assay, PDGFR-β(wt). The conditions noted are these: read-out: PDGFR-β (IC50 class). The experiment is classed as biochemical. In short, it runs like this:
as §1

The target in experiment [3] is T3, human c-KIT(wt) (Homo sapiens, UniProt P10721).
T3 construct: purchased Signalchem K06-11BG
T3 sequence (P10721 26-976): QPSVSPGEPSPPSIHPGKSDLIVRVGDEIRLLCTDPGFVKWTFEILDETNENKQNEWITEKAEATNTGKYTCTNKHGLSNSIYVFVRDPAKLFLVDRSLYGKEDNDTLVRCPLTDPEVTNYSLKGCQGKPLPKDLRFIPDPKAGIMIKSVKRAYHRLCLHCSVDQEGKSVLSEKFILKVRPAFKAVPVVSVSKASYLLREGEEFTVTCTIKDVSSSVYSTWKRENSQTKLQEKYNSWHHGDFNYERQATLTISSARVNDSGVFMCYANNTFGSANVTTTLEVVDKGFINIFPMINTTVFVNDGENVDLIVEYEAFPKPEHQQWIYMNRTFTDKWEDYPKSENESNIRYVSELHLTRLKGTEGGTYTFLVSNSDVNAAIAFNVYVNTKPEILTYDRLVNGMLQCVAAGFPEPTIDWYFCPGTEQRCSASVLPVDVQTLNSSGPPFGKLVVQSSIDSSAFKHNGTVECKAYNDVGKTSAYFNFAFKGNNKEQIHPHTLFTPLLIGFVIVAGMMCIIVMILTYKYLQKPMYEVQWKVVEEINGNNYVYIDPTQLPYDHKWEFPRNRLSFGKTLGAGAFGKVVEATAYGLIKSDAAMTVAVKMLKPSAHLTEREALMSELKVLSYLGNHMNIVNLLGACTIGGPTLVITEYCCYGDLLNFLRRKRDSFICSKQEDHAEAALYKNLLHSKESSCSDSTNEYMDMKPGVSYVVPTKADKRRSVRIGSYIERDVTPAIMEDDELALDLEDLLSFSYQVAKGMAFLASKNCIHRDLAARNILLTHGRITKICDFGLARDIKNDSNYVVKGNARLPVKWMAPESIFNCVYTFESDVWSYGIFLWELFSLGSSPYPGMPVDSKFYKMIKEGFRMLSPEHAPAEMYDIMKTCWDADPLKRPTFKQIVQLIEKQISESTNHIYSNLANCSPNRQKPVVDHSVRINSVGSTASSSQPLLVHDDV
Briefly: Enzyme inhibitory activity, ADP-Glo kinase assay, c-KIT(wt). The format is biochemical. The conditions noted are these: read-out: c-KIT (WT) (IC50 class). The protocol:
(§2) In order to evaluate the inhibitory activity of the compounds synthesized according to the above examples on PDGFR-α(wt), PDGFR-β(wt), c-KIT(wt), and c-KIT(D816V) kinases, the following method was performed. The compounds of examples were reacted with purified human PDGFR-α(wt) (Signalchem #P12-18G) enzyme, human PDGFR-β(wt) (Signalchem #P13-11G) enzyme, human c-KIT(wt) (Signalchem #K06-11BG) enzyme, human c-KIT(D816V) (Signalchem #C06-12LG) enzyme, and the enzyme inhibitory abilities were evaluated by the following method.
(§3) The reaction buffer was used as a composition of 40 mM Tris-HCl pH7.4, 20 mM MgCl2, 0.5 mg/ml BSA, 50 μM DTT, and the reactions of all the tests were carried out on the reaction buffer. The compound was diluted in 12 steps using a serial dilution method from a 10 mM DMSO stock, and the enzyme activity was measured at a final compound concentration of 10˜0.00005645 μM. During the test, the enzyme activity was confirmed using in vitro ADP-Glo™ kinase assay (Promega) after reacting with the proper concentration of human PDGFR-α(wt) enzyme, human PDGFR-β(wt), human c-KIT(wt) enzyme, and human c-KIT(D816V) enzyme with purified ATP and enzyme substrate at 25° C. for 1˜2 hours. At a ratio of 2:2:1, an enzyme-active reaction solution, an ADP-Glo reaction solution, and an enzyme-active detection solution were reacted to measure the inhibition of the enzyme's activity with luminoscence. Based on the […] of the enzyme activity of the solvent control that was not treated with the compound, the degree of enzyme activity inhibition was calculated according to the treatment concentration of each compound, and the concentration of each compound that inhibits 50% of enzyme activity was determined as IC50 (nM) value and the value was obtained by using GraphPad Prism 8.3.0 (GraphPad software Inc., San Diego) software. (A: IC50≤50 nM; B: 50 nM<IC50≤100 nM; C: 100 nM<IC50≤500 nM; D: IC50>500 nM).

Experiment [4] relates to Ba/F3-TEL-PDGFRα(WT). Put plainly: Proliferation inhibitory activity on Ba/F3 cell (CellTiter-Glo, 72 hours), PDGFR-α. The format is cell-based. Conditions: Mus musculus, BaF3, read-out: Ba/F3 (nM) Tel-PDGFRα (GI50 class). In a few lines:
(§4)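 Viability was read by CellTiter-Glo after 72 h compound exposure at 37 °C, and GI50 values (nM) were derived from percent of vehicle-treated growth. Ba/F3 cells transformed with TEL-PDGFRα/β or mutant c-KIT were plated at 3×10^3 per well. Final compound range was 0.00005-10 μM in 12 threefold steps.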
Background: Cellular ATP, detected with luciferase, serves as a proxy for viable cell number.

Experiment [5] has as its system Ba/F3-TEL-PDGFβ(WT). Put plainly: Proliferation inhibitory activity on Ba/F3 cell (CellTiter-Glo, 72 hours), PDGFR-β. The experiment is classed as cell-based. Conditions: Mus musculus, BaF3, read-out: Ba/F3 (nM) Tel-PDGFRβ (GI50 class). In a few lines:
as §4

The subject of experiment [6] is Ba/F3-c-KIT(D816V). Briefly: Proliferation inhibitory activity on Ba/F3 cell (CellTiter-Glo, 72 hours), c-KIT(D816V). The format is cell-based. Conditions: Mus musculus, BaF3, read-out: Ba/F3 (nM) c-KIT (D816V) (GI50 class). In a few lines:
as §4

In experiment [7] the test system is c-KIT V560G/D816V. Put plainly: Proliferation inhibitory activity on Ba/F3 cell (CellTiter-Glo, 72 hours), c-KIT V560G/D816V. The experiment is classed as cell-based. Conditions: Mus musculus, BaF3, c-KIT V560G/D816V cells, read-out: Cell (nM) c-KIT V560G/D816V (GI50 class). In short, it runs like this: as §4
In experiment [8] the test system is c-KIT D814Y. Briefly: Proliferation inhibitory activity on Ba/F3 cell (CellTiter-Glo, 72 hours), c-KIT D814Y. The format is cell-based. The conditions noted are these: Mus musculus, BaF3, c-KIT D814Y cells, read-out: Cell (nM) c-KIT D814Y (GI50 class). In a few lines:
as §4

In experiment [9] the test system is various kinases. Briefly: Inhibitory activity against various kinases, DiscoverX scanMAX Kinase panel, % control at 1 μM. The experiment is classed as binding. As for the experimental part: The activities of the compounds according to the present disclosure on various enzymes were evaluated. Specifically, it was commissioned DiscoverX to measure enzyme selectivity for the compounds of Examples 3, 9, and 83 above, and the experiment was conducted using a panel for scanMAX™ Kinase analysis. Herein, a solution prepared by dissolving in DMSO at a concentration of 1 μM was used as the drug treated with the enzyme, and the control percentage (% control) was determined by the method of Equation 1 below, and the results are shown in Table 8 below.
Herein, when the calculated percentage value for each enzyme was less than 35%, it was determined to have inhibitory activity for the enzyme. Accordingly, among the series of enzymes tested, the enzymes showing the inhibitory activities of the compounds of the present disclosure are summarized and shown in Table 8 below along with the control percentages thereof. (©): less than 10%; ◯: 10% or more to less than 35%).

Experiment [10] addresses T4, c-KIT D816V (Homo sapiens, UniProt P10721, D816V). Briefly: Enzyme inhibitory activity, ADP-Glo kinase assay, c-KIT(D816V). Further details: purchased Signalchem C06-12LG. The format is biochemical. The conditions noted are these: read-out: c-KIT (D816V) (IC50 class). As for the experimental part: as §2, §3
Experiment [11] addresses T4, c-KIT D816V. The conditions noted are these: background art; cited from earlier work.

T4 sequence (P10721 26-976 D816V): as the sequence (P10721 26-976) above, with D791V counted along it
T1 sequence (P16234 24-1089): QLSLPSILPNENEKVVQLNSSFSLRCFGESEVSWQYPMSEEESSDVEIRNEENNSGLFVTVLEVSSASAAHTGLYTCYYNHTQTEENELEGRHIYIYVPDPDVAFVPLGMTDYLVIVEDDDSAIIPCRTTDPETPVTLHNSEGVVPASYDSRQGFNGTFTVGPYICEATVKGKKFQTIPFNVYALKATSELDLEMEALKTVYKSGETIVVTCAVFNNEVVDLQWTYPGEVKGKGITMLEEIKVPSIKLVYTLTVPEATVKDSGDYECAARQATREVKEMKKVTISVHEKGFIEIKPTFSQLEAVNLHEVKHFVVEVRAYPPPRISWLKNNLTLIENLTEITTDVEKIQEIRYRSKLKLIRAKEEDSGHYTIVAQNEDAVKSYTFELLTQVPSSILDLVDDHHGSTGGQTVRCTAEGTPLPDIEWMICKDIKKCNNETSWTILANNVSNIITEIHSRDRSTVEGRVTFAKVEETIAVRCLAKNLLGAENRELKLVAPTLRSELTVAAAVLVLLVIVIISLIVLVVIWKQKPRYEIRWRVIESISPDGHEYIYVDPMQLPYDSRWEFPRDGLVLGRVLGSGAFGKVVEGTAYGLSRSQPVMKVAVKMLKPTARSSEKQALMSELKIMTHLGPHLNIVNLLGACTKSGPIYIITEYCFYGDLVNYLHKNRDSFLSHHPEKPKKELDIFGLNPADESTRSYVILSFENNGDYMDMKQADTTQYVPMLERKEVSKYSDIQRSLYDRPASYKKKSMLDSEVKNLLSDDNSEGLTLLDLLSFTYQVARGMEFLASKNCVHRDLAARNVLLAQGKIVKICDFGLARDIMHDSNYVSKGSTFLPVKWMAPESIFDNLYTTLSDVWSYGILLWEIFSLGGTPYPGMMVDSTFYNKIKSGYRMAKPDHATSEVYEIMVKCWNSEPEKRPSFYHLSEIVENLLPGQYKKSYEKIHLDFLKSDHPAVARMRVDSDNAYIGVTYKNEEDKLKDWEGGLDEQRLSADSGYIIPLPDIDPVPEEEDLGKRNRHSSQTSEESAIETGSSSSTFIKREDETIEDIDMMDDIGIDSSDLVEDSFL

For the compound `COc1cc2c(-c3ccc(NC(=O)Cc4ccc(C(F)(F)F)cc4)cc3)ncnc2cc1OCCCN1CCN(C)CC1` [Example 9, N-(4-(6-methoxy-7-(3-(4-methylpiperazin-1-yl)propoxy)quinazolin-4-yl)phenyl)-2-(4-(trifluoromethyl)phenyl)acetamide], the IC50 in [1], in [2], in experiment [3] and in [10] was ≤ 50 nM in each case. Further, the GI50 in experiment [4], in experiment [5], in experiment [6], in experiment [7] and in [8] was ≤ 200 nM in each case. In addition, the “control percentage (% control), KIT” value in [9] (KIT) was “⊚”. Also, in experiment [9] (KIT (A829P)), the “control percentage (% control), KIT (A829P)” value was “⊚”. In [9] (KIT (D816H)), the “control percentage (% control), KIT (D816H)” value was “⊚”. Further, the “control percentage (% control), KIT (D816V)” value in experiment [9] (KIT (D816V)) was “⊚”. For the same compound, in experiment [9] (KIT (L576P)), the “control percentage (% control), KIT (L576P)” value is “◯ (◯: 10% or more to less than 35%)”. In addition, the “control percentage (% control), KIT (V559D)” value in experiment [9] (KIT (V559D)) is “◯ (◯: 10% or more to less than 35%)”.
On to `Cc1ccc(NC(=O)c2ccc(CN3CCN(C)CC3)cc2)cc1Nc1nccc(-c2cccnc2)n1` [imatinib], for which the “effect of inhibiting c-KIT D816V” value in [11] is listed as “no effect”.

(Values after patent publication US20260138959A1, “QUINAZOLINE DERIVATIVE COMPOUND AND USE THEREOF” (VORONOI INC., priority 2021, published 2026).)
